The test system of one assay is C57b16 mouse. Nature of the assay: C57b16 mouse OGTT. Format: in vivo. Particulars: dosed 30 min prior to glucose PO 3 g/kg. The protocol:
(§1) Male, C57bl/6J Mice were ordered in at 8 weeks of age from Jackson Labs. Individual mice weighed anywhere in the range of 25-30 grams on study day. The mice were fasted, with removal of food occurring at 7 am on the morning of the study. Animals were moved into the room at 10:00 am, to give them time to acclimate. Glucose (insulin syringes) was drawn up either the night before or the morning of the study. Glucose was dosed (IP) at 1.5 g/kg at 7.5 ml/kg (20% glucose straight TEKNOVA, 250 ml sterile bottle w/ catalogue number G0525). Test compounds were kept spinning and were only drawn into the syringes prior to study commencement. Animals were bled via tail snip to determine basal glucose levels prior to dosing of treatments. An Ascensia BREEZE Blood Glucose Monitoring System by Bayer (using unique 10-test disks) was used for determining glucose levels. The bleeds started at approximately 12:45 pm and dosing started, at 1-minute intervals, immediately after. All groups were dosed 30 minutes prior to glucose administration at a dose volume of 10 ml/kg (the dose volume was calculated separately for each individual animal). Thirty minutes after the first dose animals were bled again for a second baseline, or T=0, and immediately dosed with glucose via an i.p. injection. The exact dose volume for glucose was also calculated separately for each individual animal. Glucose measurements were taken at −30 min prior to compound dose, at t=0 (immediately prior to glucose dose), and at 15, 30, 45, 60, 90 min post glucose dose.
(§2) Glucose values were entered into an Excel sheet and graphed in GraphPad Prism. The following were calculated from Prism: Change from −30 to 0 BSLN Glucose, Raw Glucose AUC −30 to 90 min, Delta Glucose AUC −30 to 90 min, Raw Glucose AUC 0 to 90 min, Delta Glucose AUC 0 to 90 min.
The assay design is the same as that described above for the C57b16 mouse IPGTT. The difference is that glucose was dosed PO at 3 g/kg, 7.5 ml/kg of 40% glucose.

The test system of another assay is C57bl/6J Mice. Nature of the assay: GPR120 C57bl6 mouse IPGTT. Particulars: dosed 30 min prior to glucose IP 1.5 g/kg. Format: in vivo. The protocol: as §1, §2

Structures are written as SMILES.

Consider `COc1ccc(-c2csc(C(F)(F)F)c2COc2c(F)cc(CCCO)cc2F)cn1` [Cpd 38, 3-(3,5-difluoro-4-((4-(6-methoxypyridin-3-yl)-2-(trifluoromethyl)thiophen-3-yl)methoxy)phenyl)propan-1-ol], for which, in the assay with C57b16 mouse, the “C57 OGTT 3 mg/kg” value is given as −44. Moreover, the “C57 IPGTT 3 mg/kg” value with C57bl/6J Mice is −9.
On to `COc1ccc(-c2csc(C(F)(F)F)c2COc2c(F)cc(CCC(=O)O)cc2F)cn1` [Cpd 42, 3-(3,5-difluoro-4-((4-(6-methoxypyridin-3-yl)-2-(trifluoromethyl)thiophen-3-yl)methoxy)phenyl)propanoic acid], for which the “C57 OGTT 3 mg/kg” value with C57b16 mouse is on record as −44. In the assay with C57bl/6J Mice, the “C57 IPGTT 3 mg/kg” value was −14.
Regarding `OCCCc1cc(F)c(OCc2c(-c3ccc(Cl)cc3)csc2C(F)(F)F)c(F)c1` [Cpd 46, 3-(4-[[4-(4-chlorophenyl)-2-(trifluoromethyl)thiophen-3-yl]methoxy]-3,5-difluorophenyl)propan-1-ol], the “C57 OGTT 3 mg/kg” value in the assay with C57b16 mouse was −49. In addition, in the assay on C57bl/6J Mice, the “C57 IPGTT 3 mg/kg” value is −26 and the “C57 IPGTT 10 mg/kg” value is on record as −75.
For `CCc1ccc(-c2snc(Cl)c2COc2ccc(CCC(=O)O)c(C)c2C)cc1` [Cpd 85, 3-(4-[[3-chloro-5-(4-ethylphenyl)-1,2-thiazol-4-yl]methoxy]-2,3-dimethylphenyl)propanoic acid], the “C57 OGTT 3 mg/kg” value in the assay on C57b16 mouse is listed as −49. Besides, in the assay with C57bl/6J Mice, the “C57 IPGTT 3 mg/kg” value is on record as −29 and the “C57 IPGTT 10 mg/kg” value is −48.
In the case of `OCCCc1cc(F)c(OCc2c(-c3ccc(Cl)cc3)nsc2C(F)(F)F)c(F)c1` [Cpd 100, 3-(4-[[3-(4-chlorophenyl)-5-(trifluoromethyl)-1,2-thiazol-4-yl]methoxy]-3,5-difluorophenyl)propan-1-ol], the “C57 OGTT 3 mg/kg” value in the assay with C57b16 mouse was −39. Further, in the assay with C57bl/6J Mice, the “C57 IPGTT 10 mg/kg” value is on record as −42.
As for `Cc1c(CCC(=O)O)ccc(OCc2c(-c3ccc(Cl)cc3)nsc2C(F)(F)F)c1C` [Cpd 142, 3-(4-((3-(4-chlorophenyl)-5-(trifluoromethyl)isothiazol-4-yl)methoxy)-2,3-dimethylphenyl)propanoic acid], the “C57 OGTT 3 mg/kg” value in the assay on C57b16 mouse is −49. For the same compound, in the assay with C57bl/6J Mice, the “C57 IPGTT 3 mg/kg” value is −34 and the “C57 IPGTT 10 mg/kg” value is recorded as −61.

The values are drawn from patent US10118922B2 (Janssen Pharmaceutica NV, priority 2013, dated 2018).
